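Cultured in 96-well plates, cells were exposed to test compound for 48 hours across five concentrations. Here, GI50 denotes the concentration required for 50% inhibition of growth. TGI marks complete inhibition of growth.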
Legend:
Assay in all cases: NCI-60 cell line screen, 48 h
[1] = test system: 786-0 renal
[2] = test system: A498 renal
[3] = test system: A549 NSCLC
[4] = test system: ACHN renal
[5] = test system: BT-549 breast
[6] = test system: CAKI-1 renal
[7] = test system: CCRF-CEM leukemia
[8] = test system: COLO 205 colon
[9] = test system: DU-145 prostate
[10] = test system: EKVX NSCLC
[11] = test system: HCC-2998 colon
[12] = test system: HCT-116 colon
[13] = test system: HCT-15 colon
[14] = test system: HL-60(TB) leukemia
[15] = test system: HOP-62 NSCLC
[16] = test system: HOP-92 NSCLC
[17] = test system: HS 578T breast
[18] = test system: HT29 colon
[19] = test system: IGROV1 ovarian
[20] = test system: K-562 leukemia
[21] = test system: KM12 colon
[22] = test system: LOX IMVI melanoma
[23] = test system: M14 melanoma
[24] = test system: MALME-3M melanoma
[25] = test system: MDA-MB-231 breast
[26] = test system: MDA-MB-435
[27] = test system: MOLT-4 leukemia
[28] = test system: NCI-H226 lung
[29] = test system: NCI-H23 lung
[30] = test system: NCI-H460 lung
[31] = test system: NCI-H522 lung
[32] = test system: NCI/ADR-RES ovarian
[33] = test system: OVCAR-3 ovarian
[34] = test system: OVCAR-4 ovarian
[35] = test system: OVCAR-5 ovarian
[36] = test system: OVCAR-8 ovarian
[37] = test system: PC-3 prostate
[38] = test system: RPMI-8226 leukemia
[39] = test system: RXF 393 renal
[40] = test system: SF-268 CNS
[41] = test system: SF-295 CNS
[42] = test system: SF-539 CNS
[43] = test system: SK-MEL-2 melanoma
[44] = test system: SK-MEL-28 melanoma
[45] = test system: SK-MEL-5 melanoma
[46] = test system: SK-OV-3 ovarian
[47] = test system: SN12C renal
[48] = test system: SNB-19 CNS
[49] = test system: SNB-75 CNS
[50] = test system: SR leukemia
[51] = test system: SW-620 colon
[52] = test system: TK-10 renal
[53] = test system: U251 CNS
[54] = test system: UACC-257 melanoma
[55] = test system: UACC-62 melanoma
[56] = test system: UO-31 renal

O=C1Nc2cc(-c3ccc(NS(=O)(=O)c4ccc(F)c(Cl)c4)cc3)ccc2/C1=C/c1ccc[nH]1
GI50 [1]: 5.54 µM | TGI [1]: 27 µM | GI50 [2]: 1.93 µM | TGI [2]: 15.5 µM | GI50 [3]: 2.35 µM | TGI [3]: 16.8 µM | GI50 [4]: 3.52 µM | TGI [4]: 14.6 µM | GI50 [5]: 4 µM | TGI [5]: 26.3 µM | GI50 [6]: 4.63 µM | TGI [6]: 18.6 µM | GI50 [7]: 3.28 µM | TGI [7]: 18.9 µM | GI50 [8]: 5.07 µM | TGI [8]: 18.9 µM | GI50 [9]: 3.74 µM | TGI [9]: 15.2 µM | GI50 [10]: 0.0918 µM | TGI [10]: 15.9 µM | GI50 [11]: 3.23 µM | TGI [11]: 20.4 µM | GI50 [12]: 3.57 µM | TGI [12]: 33.3 µM | GI50 [13]: 3.46 µM | TGI [13]: 17.6 µM | GI50 [14]: 3.34 µM | TGI [14]: 30.4 µM | GI50 [15]: 10.3 µM | TGI [15]: 26.3 µM | GI50 [16]: 4.68 µM | TGI [16]: 20.3 µM | GI50 [17]: 2.96 µM | TGI [17]: 19.2 µM | GI50 [18]: 3.31 µM | TGI [18]: 17.8 µM | GI50 [19]: 11.4 µM | TGI [19]: 39.9 µM | GI50 [20]: 3.79 µM | TGI [20]: > 100 µM | GI50 [21]: 2.13 µM | TGI [21]: 7.6 µM | GI50 [22]: 3.78 µM | TGI [22]: 16.2 µM | GI50 [23]: 5.58 µM | TGI [23]: 27.2 µM | GI50 [24]: 10.5 µM | TGI [24]: 23.2 µM | GI50 [25]: 4.86 µM | TGI [25]: 21.3 µM | GI50 [26]: 6.52 µM | TGI [26]: 25.8 µM | GI50 [27]: 2.33 µM | TGI [27]: 16.1 µM | GI50 [28]: 3.86 µM | TGI [28]: 26.1 µM | GI50 [29]: 0.533 µM | TGI [29]: 8.49 µM | GI50 [30]: 0.393 µM | TGI [30]: 1.98 µM | GI50 [31]: 4.19 µM | TGI [31]: 22.4 µM | GI50 [32]: 7.98 µM | TGI [32]: 29.9 µM | GI50 [33]: 2.86 µM | TGI [33]: 17.1 µM | GI50 [34]: 2 µM | TGI [34]: 18.8 µM | GI50 [35]: 3.53 µM | TGI [35]: 19.4 µM | GI50 [36]: 12.3 µM | TGI [36]: 32.1 µM | GI50 [37]: 3.11 µM | TGI [37]: 18 µM | GI50 [38]: 2.6 µM | TGI [38]: 21.9 µM | GI50 [39]: 3.12 µM | TGI [39]: 16.6 µM | GI50 [40]: 8.27 µM | TGI [40]: 29.2 µM | GI50 [41]: 4.68 µM | TGI [41]: 23.2 µM | GI50 [42]: 2.67 µM | TGI [42]: 14.9 µM | GI50 [43]: 18.2 µM | TGI [43]: > 100 µM | GI50 [44]: 6.91 µM | TGI [44]: 29.2 µM | GI50 [45]: 11.3 µM | TGI [45]: 35.3 µM | GI50 [46]: 4.07 µM | TGI [46]: 29.7 µM | GI50 [47]: 11.8 µM | TGI [47]: 31 µM | GI50 [48]: 13.7 µM | TGI [48]: 35.5 µM | GI50 [49]: 0.95 µM | TGI [49]: 14.4 µM | GI50 [50]: 2.2 µM | TGI [50]: 17.6 µM | GI50 [51]: 3.46 µM | TGI [51]: 17 µM | GI50 [52]: 5.8 µM | TGI [52]: 25.8 µM | GI50 [53]: 11.5 µM | TGI [53]: 26.1 µM | GI50 [54]: 3.96 µM | TGI [54]: 21.3 µM | GI50 [55]: 4.9 µM | TGI [55]: 27.9 µM | GI50 [56]: 3.22 µM | TGI [56]: 21 µM
